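The compound was tested at five concentrations on cells cultured in 96-well plates, with a 48-hour exposure period. At the GI50, growth is halved.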 Activity calls are given as the source filed them. No stated cut-off is given here; in the data, active = GI50 up to about 1.1 µM and inactive = higher.
Columns and labels:
Assay in all cases: growth of human tumour cells (NCI), 48 h
EKVX = test system: EKVX
SK-MEL-5 = test system: SK-MEL-5
OVCAR-5 = test system: OVCAR-5
MDA-MB-435 = test system: MDA-MB-435
PC-3 = test system: PC-3
HL-60 = test system: HL-60
K562 = test system: K562
A549 = test system: A549
MOLT-4 = test system: MOLT-4
SR = test system: SR
U-251 = test system: U-251
SK-MEL-2 = test system: SK-MEL-2
NCI-H460 = test system: NCI-H460
M14 = test system: M14
DU-145 = test system: DU-145
UACC-257 = test system: UACC-257
HT-29 = test system: HT-29
LOX IMVI = test system: LOX IMVI
BT-549 = test system: BT-549
TK-10 = test system: TK-10
HCT-15 = test system: HCT-15
MCF7 = test system: MCF7
OVCAR-4 = test system: OVCAR-4
NCI-H226 = test system: NCI-H226
Malme-3M = test system: Malme-3M
SK-OV-3 = test system: SK-OV-3
HOP-62 = test system: HOP-62
UACC-62 = test system: UACC-62
MDA-MB-231 = test system: MDA-MB-231
ACHN = test system: ACHN
SK-MEL-28 = test system: SK-MEL-28
RPMI-8226 = test system: RPMI-8226
Hs-578T = test system: Hs-578T
SNB-75 = test system: SNB-75
CCRF-CEM = test system: CCRF-CEM
HOP-92 = test system: HOP-92
HCC 2998 = test system: HCC 2998
NCI-H522 = test system: NCI-H522
A498 = test system: A498
IGROV-1 = test system: IGROV-1
MDA-N = test system: MDA-N
RXF 393 = test system: RXF 393
KM12 = test system: KM12
SW-620 = test system: SW-620
HCT-116 = test system: HCT-116
786-0 = test system: 786-0
OVCAR-3 = test system: OVCAR-3
SNB-19 = test system: SNB-19
SN12C = test system: SN12C
SF-268 = test system: SF-268
NCI-H23 = test system: NCI-H23
SF-295 = test system: SF-295
T47D = test system: T47D
COLO 205 = test system: COLO 205
CAKI-1 = test system: CAKI-1
OVCAR-8 = test system: OVCAR-8
SF-539 = test system: SF-539

For `COc1ccc2cc(CNCCCCCCNC(=O)Nc3cccc4ccccc34)ccc2c1`, the GI50 (EKVX) was > 100 µM (inactive), the GI50 (SK-MEL-5) was > 100 µM (inactive) and the GI50 (OVCAR-5) was > 100 µM (inactive). The GI50 (MDA-MB-435) was > 100 µM (inactive), the GI50 (PC-3) was > 100 µM (inactive) and the GI50 (HL-60) was > 100 µM (inactive). The GI50 (K562) was > 100 µM (inactive), the GI50 (A549) was > 100 µM (inactive) and the GI50 (MOLT-4) was > 100 µM (inactive). The GI50 (SR) was > 100 µM (inactive), the GI50 (U-251) was > 100 µM (inactive) and the GI50 (SK-MEL-2) was > 100 µM (inactive). The GI50 (NCI-H460) was > 100 µM (inactive), the GI50 (M14) was > 100 µM (inactive) and the GI50 (DU-145) was > 100 µM (inactive). For the same molecule, the GI50 (UACC-257) was > 100 µM (inactive), the GI50 (HT-29) was > 100 µM (inactive) and the GI50 (LOX IMVI) was > 100 µM (inactive). For the same molecule, the GI50 (BT-549) was > 100 µM (inactive), the GI50 (TK-10) was > 100 µM (inactive) and the GI50 (HCT-15) was greater than 100 µM. The GI50 (MCF7) was > 100 µM (inactive), the GI50 (OVCAR-4) was > 100 µM (inactive) and the GI50 (NCI-H226) was > 100 µM (inactive). For the same molecule, the GI50 (Malme-3M) was > 100 µM (inactive), the GI50 (SK-OV-3) was > 100 µM (inactive) and the GI50 (HOP-62) was > 100 µM (inactive). The GI50 (UACC-62) was > 100 µM (inactive), the GI50 (MDA-MB-231) was > 100 µM (inactive) and the GI50 (ACHN) was > 100 µM (inactive). The GI50 (SK-MEL-28) was > 100 µM (inactive), the GI50 (RPMI-8226) was > 100 µM (inactive) and the GI50 (Hs-578T) was > 100 µM (inactive). For the same molecule, the GI50 (SNB-75) was > 100 µM (inactive), the GI50 (CCRF-CEM) was > 100 µM (inactive) and the GI50 (HOP-92) was > 100 µM (inactive). The GI50 (HCC 2998) was > 100 µM (inactive), the GI50 (NCI-H522) was > 100 µM (inactive) and the GI50 (A498) was > 100 µM (inactive). The GI50 (IGROV-1) was > 100 µM (inactive), the GI50 (MDA-N) was > 100 µM (inactive) and the GI50 (RXF 393) was > 100 µM (inactive). For the same molecule, the GI50 (KM12) was > 100 µM (inactive), the GI50 (SW-620) was > 100 µM (inactive) and the GI50 (HCT-116) was > 100 µM (inactive). For the same molecule, the GI50 (786-0) was > 100 µM (inactive), the GI50 (OVCAR-3) was > 100 µM (inactive) and the GI50 (SNB-19) was > 100 µM (inactive). The GI50 (SN12C) was > 100 µM (inactive), the GI50 (SF-268) was > 100 µM (inactive) and the GI50 (NCI-H23) was > 100 µM (inactive). For the same molecule, the GI50 (SF-295) was > 100 µM (inactive), the GI50 (T47D) was > 100 µM (inactive) and the GI50 (COLO 205) was > 100 µM (inactive). The GI50 (CAKI-1) was > 100 µM (inactive), the GI50 (OVCAR-8) was > 100 µM (inactive) and the GI50 (SF-539) was > 100 µM (inactive).
